Here are results for 1 molecule from US5910504A, “Hetero-aromatic ring substituted phenyloxazolidinone antimicrobials” (Pharmacia & Upjohn, priority 1997, dated 1999).

In brackets after ≈: the same amount, converted by molar mass.

As a reminder, the ED50 is the dose that gives a 50% effect, or the effect in half of the subjects.

For assay [1], the system named is S. aureus, UC 9213. In words: In vivo antimicrobial activity, Murine Assay procedure. Further details: species or system Staphylococcus aureus (infected female mice). As to conditions: Staphylococcus aureus, UC9213, 144 h; female mice, i.p. infection; drug 1 h and 5 h after infection, oral or subcutaneous; six-day survival, probit; read-out: ED50, S. aureus, UC 9213. As to the method:
Antimicrobial activity was tested in vivo using the Murine Assay procedure. Groups of female mice (six mice of 18-20 grams each) were injected intraperitoneally with bacteria which were thawed just prior to use and suspended in brain heart infusion with 4% brewers yeast UC9213 (Staphylococcus aureus) or brain heart infusion (Streptococcus species). Antibiotic treatment at six dose levels per drug was administered one hour and five hours after infection by either oral intubation or subcutaneous ("subcut.") routes. Survival was observed daily for six days. ED50 values based on mortality ratios were calculated using probit analysis. The subject compounds were compared against a well-known antimicrobial (Vancomycin) as a control.

Assay [2] relates to S. aureus, UC 9213. In words: In vitro activity: minimum inhibitory concentration (MIC) by agar dilution, S. aureus. As to conditions: Staphylococcus aureus, UC9213; agar dilution; read-out: Minimum Inhibitory Concentration, S. aureus, UC 9213. The format is cell-based. An excerpt:
(§1) The oxazolidinone antibacterial agents of this invention have useful activity against a variety of organisms. The in vitro activity of compounds of this invention can be assessed by standard testing procedures such as the determination of minimum inhibitory concentration (MIC) by agar dilution as desribed in "Methods for Dilution Antimicrobial Susceptibility Tests for Bacteria That Grow Aerobically" (MFT) published January 1983 by the National Committee for Clinical Laboratory Standards, 771 East Lancaster Avenue, Villanova, Pa. 19084, USA. The activity of selected compounds of this invention against Staphylococcus aureus and Streptococcus pneumoniae are shown in Table 1.

Another assay relates to S. pneumoniae, UC 9912. In words: In vitro activity: minimum inhibitory concentration (MIC) by agar dilution, S. pneumoniae. The format is cell-based. As to conditions: Streptococcus pneumoniae, UC9912; agar dilution; read-out: Minimum Inhibitory Concentration, S. pneumoniae, UC 9912.
Description: as §1
A general note: Agar dilution tests growth on a series of plates holding different concentrations.

On to `CON=Cc1ccn(-c2ccc(N3C[C@H](CNC(C)=O)OC3=O)cc2F)c1` [Example 15, (S)-N-[[3-[3-Fluoro-4-(1H-pyrrol-1-yl-3-carboxaldehyde)phenyl]-2-oxo-5-oxazolidinyl]methyl]acetamide, methoxime], for which, in the assay on S. aureus, UC 9213 [1], the 50% effective dose (ED50) came to 7.3 mg/kg. In addition, the MIC in the assay with S. aureus, UC 9213 [2] worked out at 1 µg/mL (≈ 2.67 µM); with S. pneumoniae, UC 9912, 0.25 µg/mL (≈ 0.668 µM).
